Assay [1] has as its target T1, human RORγt ligand binding domain (RORγt LBD) (Homo sapiens, UniProt P51449).
T1 construct: His-tag (N); TurboTEV protease cleavage site (ENLYFQG) (N); made in house; host or cells: E. coli (pHIS1, a modified pET expression vector)
T1 sequence (P51449 with tags, fused parts or gaps): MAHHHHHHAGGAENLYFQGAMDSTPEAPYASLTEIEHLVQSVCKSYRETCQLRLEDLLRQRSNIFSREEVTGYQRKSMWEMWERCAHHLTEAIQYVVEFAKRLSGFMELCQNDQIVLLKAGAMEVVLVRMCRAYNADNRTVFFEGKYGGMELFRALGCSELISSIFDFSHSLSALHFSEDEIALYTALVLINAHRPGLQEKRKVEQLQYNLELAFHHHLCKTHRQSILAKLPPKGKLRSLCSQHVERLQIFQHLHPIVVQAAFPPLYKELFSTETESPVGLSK
The experiment in a line: RORγt ThermoFluor assay. The following applies: estimated from thermal shift concentration response. Here is the method: This approach is applicable to a wide variety of systems, and rigorous in theoretical interpretation through quantitation of equilibrium binding constants (KD).
The shift in the melting point described as a ΔTm is proportional to the concentration and affinity of the ligand.
Protein and compound solutions are dispensed into black 384-well polypropylene PCR microplates (Abgene) and overlayed with silicone oil (1 μL, Fluka, type DC 200) to prevent evaporation.
Bar-coded assay plates are robotically loaded onto a thermostatically controlled PCR-type thermal block and then heated at a typical ramp-rate of 1° C./min for all experiments.
Fluorescence was measured by continuous illumination with UV light (Hamamatsu LC6) supplied via fiber optic and filtered through a band-pass filter (380-400 nm; >6 OD cutoff). Fluorescence emission of the entire 384-well plate was detected by measuring light intensity using a CCD camera (Sensys, Roper Scientific) filtered to detect 500±25 nm, resulting in simultaneous and independent readings of all 384 wells. Images were collected at each temperature, and the sum of the pixel intensity in a given area of the assay plate was recorded versus temperature. Reference wells contained RORγt without compounds, and the assay conditions were as follows: • 0.065 mg/mL RORγt • 60 μM 1,8-ANS • 100 mM Hepes, pH 7.0 • 10 mM NaCl • 2.5 mM GSH • 0.002% Tween-20
Project compounds were arranged in a pre-dosed mother plate (Greiner Bio-one) wherein compounds are serially diluted in 100% DMSO by 1:2 from a high concentration of 10 mM over 12 columns within a series (column 12 is a reference well containing DMSO, no compound). The compounds were robotically dispensed directly into assay plates (1×=46 nL) using a Hummingbird capillary liquid handling instrument (Digilab). Following compound dispense, protein and dye in buffer was added to achieve the final assay volume of 3 μL, followed by 1 μL of silicone oil.

Assay [2] concerns the target T2, full-length human RORγt (Homo sapiens, UniProt P51449).
T2 construct: expressed in transfected cells; host or cells: HEK293T, transiently transfected with pCMV-BD-ROR
T2 sequence (P51449 1-497 isoform P51449-2): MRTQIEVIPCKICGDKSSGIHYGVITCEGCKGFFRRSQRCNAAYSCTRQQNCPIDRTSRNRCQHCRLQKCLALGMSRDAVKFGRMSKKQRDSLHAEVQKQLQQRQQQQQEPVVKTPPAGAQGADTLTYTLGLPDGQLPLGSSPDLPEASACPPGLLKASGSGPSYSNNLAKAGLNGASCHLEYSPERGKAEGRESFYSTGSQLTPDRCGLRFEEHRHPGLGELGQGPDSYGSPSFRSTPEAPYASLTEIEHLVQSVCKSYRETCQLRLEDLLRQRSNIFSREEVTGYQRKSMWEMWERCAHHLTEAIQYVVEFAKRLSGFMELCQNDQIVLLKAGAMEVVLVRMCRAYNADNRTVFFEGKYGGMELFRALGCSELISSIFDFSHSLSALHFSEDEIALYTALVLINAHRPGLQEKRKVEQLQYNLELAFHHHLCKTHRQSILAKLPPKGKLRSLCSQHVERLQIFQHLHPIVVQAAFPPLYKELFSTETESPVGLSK
The assay can be described thus: RORγt (full-length human) Reporter Assay, Conditions A. The assay is classed as cell-based. Conditions: for IC50: HEK293T cells, GAL4-DBD-RORγt, luciferase, read-out: RORγt (FL) Reporter Assay A, IC50; for inhibition at 2 µM: read-out: RORγt (FL) Reporter Assay A, % inhibition (* at 2 μM), 2 μM compound concentration (footnote *); for inhibition at 6 µM: read-out: RORγt (FL) Reporter Assay A, % inhibition @ 6 μM, 6 μM compound. On the procedure:
After overnight (16 to 20 hours) incubation, media were removed and cells were lysed with 20 μL 1× Passive Lysis Buffer (Promega) for 10-15 minutes. Luminescence was measured using a BMG LUMIstar OPTIMA plate reader, after addition of 75 μL/well firefly luciferase buffer, followed by 75 μL/well Renilla luciferase buffer. To calculate the effect of compounds on RORγt activity, firefly values were normalized against values of DMSO only and values of reference compound at saturating concentration, then further normalized against Renilla signals. IC50s were generated by plotting final Renilla normalized data against compound concentration and percent inhibition was calculated against DMSO control.

With `C[C@H]1CCCCN1C(=O)c1nc(-c2noc(CC(C)(C)C(=O)O)n2)sc1-c1ccc(C(O)(C(F)(F)F)C(F)(F)F)c(Cl)c1Cl` [Example 20, (S)-3-(3-(5-(2,3-Dichloro-4-(1,1,1,3,3,3-hexafluoro-2-hydroxypropan-2-yl)phenyl)-4-(2-methylpiperidine-1-carbonyl)thiazol-2-yl)-1,2,4-oxadiazol-5-yl)-2,2-dimethylpropanoic acid], the Kd in assay [1] is 0.026 nM. Also, in assay [2], the IC50 is 12 nM and the inhibition at 2 µM was determined as 101%.

Turning to `C[C@H](NS(=O)(=O)c1ccc(-c2sc(-c3nnc(C(C)(C)O)o3)nc2C(=O)N2CCC(F)(F)C2)c(Cl)c1Cl)C(F)(F)F` [Example 6/2, (S)-2,3-Dichloro-4-(4-(3,3-difluoropyrrolidine-1-carbonyl)-2-(5-(2-hydroxypropan-2-yl)-1,3,4-oxadiazol-2-yl)thiazol-5-yl)-N-(1,1,1-trifluoropropan-2-yl)benzenesulfonamide], the Kd in assay [1] was 7.6 nM. Also, in assay [2], the IC50 was 38 nM and the inhibition at 6 µM amounted to 108%.

Regarding `C[C@H](NS(=O)(=O)c1ccc(-c2sc(-c3nnc(CS(C)(=O)=O)o3)nc2C(=O)N2CCC(F)(F)CC2)c(Cl)c1Cl)C(F)(F)F` [Example 1/4, (S)-2,3-Dichloro-4-(4-(4,4-difluoropiperidine-1-carbonyl)-2-(5-((methylsulfonyl)methyl)-1,3,4-oxadiazol-2-yl)thiazol-5-yl)-N-(1,1,1-trifluoropropan-2-yl)benzenesulfonamide], the Kd in assay [1] is 4.7 nM. In assay [2], the IC50 is 55 nM and the inhibition at 6 µM is 101%.

In the case of `CC[C@H](NS(=O)(=O)c1ccc(-c2sc(-c3nnc(C(C)(C)O)o3)nc2C(=O)N(CC)CC)c(Cl)c1F)C(F)(F)F` [Example 6/20, (S)-5-(2-Chloro-3-fluoro-4-(N-(1,1,1-trifluorobutan-2-yl)sulfamoyl)phenyl)-N,N-diethyl-2-(5-(2-hydroxypropan-2-yl)-1,3,4-oxadiazol-2-yl)thiazole-4-carboxamide], the Kd in assay [1] is 11 nM. In assay [2], the IC50 was found to be 43 nM and the inhibition at 2 µM came out at 102%.

Regarding `C[C@H](NS(=O)(=O)c1ccc(-c2sc(-c3nnc(CC(C)(C)O)o3)nc2C(=O)N2CCC(F)(F)CC2)c(OC(F)F)c1F)C(F)(F)F` [Example 3/7, (S)-3-(Difluoromethoxy)-4-(4-(4,4-difluoropiperidine-1-carbonyl)-2-(5-(2-hydroxy-2-methylpropyl)-1,3,4-oxadiazol-2-yl)thiazol-5-yl)-2-fluoro-N-(1,1,1-trifluoropropan-2-yl)benzenesulfonamide], the Kd in assay [1] was 81 nM. In assay [2], the IC50 was 290 nM and the inhibition at 6 µM was determined as 103%.

With `CCN(CC(F)(F)F)C(=O)c1nc(-c2nnc(C(C)(C)O)o2)sc1-c1ccc(S(=O)(=O)N[C@@H](C)C(F)(F)F)c(Cl)c1Cl` [Example 4/6, (S)-5-(2,3-Dichloro-4-(N-(1,1,1-trifluoropropan-2-yl)sulfamoyl)phenyl)-N-ethyl-2-(5-(2-hydroxypropan-2-yl)-1,3,4-oxadiazol-2-yl)-N-(2,2,2-trifluoroethyl)thiazole-4-carboxamide], the Kd in assay [1] is 6.3 nM. In assay [2], the IC50 stood at 23 nM and the inhibition at 6 µM was determined as 101%.

Take `CC(C)(O)c1nnc(-c2nc(C(=O)N3CCC(F)(F)CC3)c(-c3ccc(CC(O)(C(F)(F)F)C(F)(F)F)c(Cl)c3)s2)o1` [Example 8/3, (5-(3-Chloro-4-(3,3,3-trifluoro-2-hydroxy-2-(trifluoromethyl)propyl)phenyl)-2-(5-(2-hydroxypropan-2-yl)-1,3,4-oxadiazol-2-yl)thiazol-4-yl)(4,4-difluoropiperidin-1-yl)methanone]: the Kd in assay [1] is 6.3 nM. Moreover, in assay [2], the IC50 was found to be 83 nM and the inhibition at 2 µM was determined as 104%.

With `C[C@H](NS(=O)(=O)c1ccc(-c2sc(-c3nnc(C(C)(C)O)o3)nc2C(=O)N2CCCC[C@@H]2C)c(Cl)c1Cl)C(F)(F)F` [Example 4/3, 2,3-Dichloro-4-(2-(5-(2-hydroxypropan-2-yl)-1,3,4-oxadiazol-2-yl)-4-((S)-2-methylpiperidine-1-carbonyl)thiazol-5-yl)-N—((S)-1,1,1-trifluoropropan-2-yl)benzenesulfonamide], the Kd in assay [1] was 0.38 nM. Also, in assay [2], the half-maximal inhibitory concentration (IC50) is 26 nM and the inhibition at 6 µM was 105%.

Take `C[C@H]1CCCN1C(=O)c1nc(-c2nnc(C(C)(C)O)o2)sc1-c1ccc(OCC(O)(C(F)(F)F)C(F)(F)F)cc1C(F)(F)F` [Example 6/24, (S)-(2-(5-(2-Hydroxypropan-2-yl)-1,3,4-oxadiazol-2-yl)-5-(4-(3,3,3-trifluoro-2-hydroxy-2-(trifluoromethyl)propoxy)-2-(trifluoromethyl)phenyl)thiazol-4-yl)(2-methylpyrrolidin-1-yl)methanone]: the Kd in assay [1] was 11 nM. For the same molecule, in assay [2], the IC50 turned out to be 130 nM and the inhibition at 2 µM was 96%.

As for `C[C@H](NS(=O)(=O)c1ccc(-c2sc(-c3nnc(C4(C(F)(F)F)CC4)o3)nc2C(=O)N2CCC(F)(F)CC2)c(Cl)c1Cl)C(F)(F)F` [Example 1/3, (S)-2,3-Dichloro-4-(4-(4,4-difluoropiperidine-1-carbonyl)-2-(5-(1-(trifluoromethyl)cyclopropyl)-1,3,4-oxadiazol-2-yl)thiazol-5-yl)-N-(1,1,1-trifluoropropan-2-yl)benzenesulfonamide], the Kd in assay [1] is 0.7 nM. Moreover, the inhibition at 0.67 µM in assay [2] (0.67 μM compound concentration, read-out: RORγt (FL) Reporter Assay A, % inhibition (** at 0.67 μM)) is 103%. Further, the IC50 in assay [2] is 4.5 nM.

`C[C@H](NS(=O)(=O)c1ccc(-c2sc(-c3nnc(C(C)(C)O)o3)nc2C(=O)N2CCC(F)(F)CC2)c(Cl)c1F)C(F)(F)F` [Example 8/1, (S)-3-Chloro-4-(4-(4,4-difluoropiperidine-1-carbonyl)-2-(5-(2-hydroxypropan-2-yl)-1,3,4-oxadiazol-2-yl)thiazol-5-yl)-2-fluoro-N-(1,1,1-trifluoropropan-2-yl)benzenesulfonamide]: the Kd in assay [1] was 5.6 nM. For the same molecule, in assay [2], the IC50 was 61 nM and the inhibition at 6 µM was 108%.

Take `C[C@H](NS(=O)(=O)c1ccc(-c2sc(-c3nnc(C(C)(C)O)[nH]3)nc2C(=O)N2CCC(F)(F)CC2)c(Cl)c1Cl)C(F)(F)F` [Example 9/3, (S)-2,3-Dichloro-4-(4-(4,4-difluoropiperidine-1-carbonyl)-2-(5-(2-hydroxypropan-2-yl)-4H-1,2,4-triazol-3-yl)thiazol-5-yl)-N-(1,1,1-trifluoropropan-2-yl)benzenesulfonamide]: the Kd in assay [1] was 1.2 nM. For the same molecule, in assay [2], the IC50 was found to be 61 nM and the inhibition at 2 µM was determined as 104%.

(Values after patent US9845319B2, “Amide substituted thiazoles as modulators of RORyt” (Janssen Pharmaceutica NV, priority 2014, dated 2017).)
